Assay results from US20200256853A1, “Models of Reconstructed Sensitive Skin” (Laboratoires Expanscience, priority 2017, published 2020).

How the values were obtained:
Assay type in all cases: cell-based
[1] = system: reconstructed Sensitive Skin model (reconstructed human epidermises treated with 0.6% lactic acid); experiment: Intracellular measurements of inflammatory mediators (ELISA) in reconstructed Sensitive Skin model, Example 3; conditions: for IL1RA/IL1-alpha ratio Change / Intracellular IL1-alpha Change / Intracellular IL1RA Change / Intracellular IL8 Change: change vs. lactic acid
Protocol: Intracellular amounts of IL-1α, IL8 and IL1-RA were determined by ELISA (R&D Systems) in ground epidermis (n=2).
(§1) Reconstructed human epidermises were obtained from the keratinocytes of a […] donor using the method derived from Poumay et al. (Arch Dermatol Res 2004; 296:203-11). After 2 days of immersion culture, the reconstructed human epidermises were cultured at the air/liquid interface for 10 days.
(§2) Epidermises at differentiation day 10 was treated or not (control) systemically with the test compounds and incubated for 24 hours.
(§3) The amount of inflammatory mediators IL-1alpha (IL1α), IL-8 and PGE2 present in skin culture supernatants was evaluated using ELISA kits (R&D Systems). • Evaluations of intracellular inflammatory markers IL-1α, IL8 and IL1-RA (n=2)
(§4) Same protocol as described in Example 2. • Determination of Poly-Unsaturated Fatty Acids (PUFAs) (n=2)

[2] = system: reconstructed Sensitive Skin model (reconstructed human epidermises treated with 0.6% lactic acid); experiment: Determinations of released inflammatory mediators (ELISA) in reconstructed Sensitive Skin model, Example 3; conditions: for Released IL1-alpha Change / Released IL8 Change / Released PGE2 Change: change vs. lactic acid
Protocol: as §1, §2, §3

[3] = system: reconstructed Sensitive Skin model (reconstructed human epidermises treated with 0.6% lactic acid); experiment: Determination of PUFAs (GC/MS) in reconstructed Sensitive Skin model, Example 3; conditions: for C18:1 Change / C18:2 LA Change / C20:4 AA Change: change vs. lactic acid
Protocol: Screening of polyunsaturated fatty acids (PUFAs) expressed by the epidermis was carried out by GC/MS analysis of samples obtained after grinding the epidermises (n=2).
The amounts were normalized by C16:0 (palmitic acid), which is representative of the overall lipid content of the epidermis.
as §1, §2, §4
Same protocol as described in Example 2.

CC1(C)[C@@H](O[C@H]2O[C@H](C(=O)[O-])[C@@H](O)[C@H](O)[C@H]2O[C@@H]2O[C@H](C(=O)[O-])[C@@H](O)[C@H](O)[C@H]2O)CC[C@]2(C)[C@H]3C(=O)C=C4[C@@H]5C[C@@](C)(C(=O)O)CC[C@]5(C)CC[C@@]4(C)[C@]3(C)CC[C@@H]12.[K+].[K+] [GLY, Dipotassium glycyrrhizinate]
IL1RA/IL1-alpha ratio Mean ± SD ([1]; GLY 0.005% + lactic acid 0.6%): 25.6 ± 1.29 | Intracellular IL1-alpha Mean ± SD ([1]; GLY 0.005% + lactic acid 0.6%): 987.5 ± 101.1 pg/mg protein | Intracellular IL1RA Mean ± SD ([1]; GLY 0.005% + lactic acid 0.6%): 25195 ± 1305 pg/mg protein | Intracellular IL8 Mean ± SD ([1]; GLY 0.005% + lactic acid 0.6%): 78.39 ± 6.350 pg/mg protein | IL1RA/IL1-alpha ratio Change ([1]; GLY 0.005% + lactic acid 0.6%): +3% | Intracellular IL1-alpha Change ([1]; GLY 0.005% + lactic acid 0.6%): −5% | Intracellular IL1RA Change ([1]; GLY 0.005% + lactic acid 0.6%): −2% | Intracellular IL8 Change ([1]; GLY 0.005% + lactic acid 0.6%): −1% | IL1RA/IL1-alpha ratio Mean ± SD ([1]; GLY 0.01% + lactic acid 0.6%): 19.1 ± 0.212 | Intracellular IL1-alpha Mean ± SD ([1]; GLY 0.01% + lactic acid 0.6%): 587.0 ± 63.64 pg/mg protein | Intracellular IL1RA Mean ± SD ([1]; GLY 0.01% + lactic acid 0.6%): 11244 ± 1341 pg/mg protein | Intracellular IL8 Mean ± SD ([1]; GLY 0.01% + lactic acid 0.6%): 50.17 ± 3.366 pg/mg protein | IL1RA/IL1-alpha ratio Change ([1]; GLY 0.01% + lactic acid 0.6%): −23% | Intracellular IL1-alpha Change ([1]; GLY 0.01% + lactic acid 0.6%): −44% | Intracellular IL1RA Change ([1]; GLY 0.01% + lactic acid 0.6%): −56% | Intracellular IL8 Change ([1]; GLY 0.01% + lactic acid 0.6%): −37% | IL1RA/IL1α ratio (in words) ([1]; concentration not given): maintained the IL1RA/IL1α ratio | Increase in intracellular IL1RA level induced by lactic acid treatment (in words) ([1]; concentration not given): significantly inhibited | Increase in intracellular IL1α level induced by lactic acid treatment (in words) ([1]; concentration not given): significantly inhibited | Increase in intracellular IL8 level induced by lactic acid treatment (in words) ([1]; concentration not given): significantly inhibited | Released IL1-alpha Mean ± Standard deviation ([2]; GLY 0.005% + lactic acid 0.6%): 28 ± 10 pg/mL | Released IL8 Mean ± Standard deviation ([2]; GLY 0.005% + lactic acid 0.6%): 211 ± 41 pg/mL | Released PGE2 Mean ± Standard deviation ([2]; GLY 0.005% + lactic acid 0.6%): 94 ± 36 pg/mL | Released IL1-alpha Change ([2]; GLY 0.005% + lactic acid 0.6%): −59% | Released IL8 Change ([2]; GLY 0.005% + lactic acid 0.6%): +1% | Released PGE2 Change ([2]; GLY 0.005% + lactic acid 0.6%): −52% | Released IL1-alpha Mean ± Standard deviation ([2]; GLY 0.01% + lactic acid 0.6%): 35 ± 16 pg/mL | Released IL8 Mean ± Standard deviation ([2]; GLY 0.01% + lactic acid 0.6%): 244 ± 138 pg/mL | Released PGE2 Mean ± Standard deviation ([2]; GLY 0.01% + lactic acid 0.6%): 137 ± 83 pg/mL | Released IL1-alpha Change ([2]; GLY 0.01% + lactic acid 0.6%): −49% | Released IL8 Change ([2]; GLY 0.01% + lactic acid 0.6%): +17% | Released PGE2 Change ([2]; GLY 0.01% + lactic acid 0.6%): −31% | Release of IL1α induced by lactic acid (in words) ([2]; concentration not given): significantly inhibited | Release of PGE2 induced by lactic acid (in words) ([2]; concentration not given): significantly inhibited | C18:1 Mean ± SD, amount normalized to C16:0 ([3]; GLY 0.005% + lactic acid 0.6%): 0.2785 | C18:2 LA Mean ± SD, amount normalized to C16:0 ([3]; GLY 0.005% + lactic acid 0.6%): 0.1600 | C20:4 AA Mean ± SD, amount normalized to C16:0 ([3]; GLY 0.005% + lactic acid 0.6%): 0.0435 | C18:1 Change ([3]; GLY 0.005% + lactic acid 0.6%): −28% | C18:2 LA Change ([3]; GLY 0.005% + lactic acid 0.6%): −25% | C20:4 AA Change ([3]; GLY 0.005% + lactic acid 0.6%): −24% | C18:1 Mean ± SD, amount normalized to C16:0 ([3]; GLY 0.01% + lactic acid 0.6%): 0.2680 | C18:2 LA Mean ± SD, amount normalized to C16:0 ([3]; GLY 0.01% + lactic acid 0.6%): 0.1440 | C20:4 AA Mean ± SD, amount normalized to C16:0 ([3]; GLY 0.01% + lactic acid 0.6%): 0.0395 | C18:1 Change ([3]; GLY 0.01% + lactic acid 0.6%): −31% | C18:2 LA Change ([3]; GLY 0.01% + lactic acid 0.6%): −32% | C20:4 AA Change ([3]; GLY 0.01% + lactic acid 0.6%): −31%
